The text below walks through data of ChEMBL document CHEMBL1201862, “PubChem BioAssay data set” (2004).

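Five compound concentrations were applied to cells in 96-well plates for 48 hours; endpoints were derived by simple linear interpolation of the resulting dose-response curve. Here, GI50 denotes the concentration required for 50% inhibition of growth.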 Calls of active or inactive are those of the source. Cut-off read from the data, not from the text of the source: active = GI50 up to about 1.1 µM and inactive = higher. Where only a bound is given, the exact number is not on record here.

Common to all, as to experiment: NCI anticancer screen, dose series, 48 h
Assay [1] deals with SN12C.
Assay [2] concerns HOP-92.
Assay [3] concerns MOLT-4.
For assay [4], the system named is CCRF-CEM.
Assay [5] relates to COLO 205.
Assay [6] concerns NCI-H226.
In assay [7] the test system is LOX IMVI.
Assay [8] concerns SNB-75.
The test system of assay [9] is NCI-H23.
Assay [10] deals with HOP-62.
The subject of assay [11] is KM12.
Assay [12] has as its system EKVX.
The subject of assay [13] is MCF7.
Assay [14] relates to Malme-3M.
Assay [15] has as its system HCT-116.
The subject of assay [16] is A498.
Assay [17] has as its system OVCAR-4.
Assay [18] relates to OVCAR-8.
For assay [19], the system named is SK-MEL-5.
The test system of assay [20] is NCI-H522.

Regarding `CSc1nc(NC2OCC(O)C(O)C2O)c(N)c(=O)n1C` (stereo not given), the GI50 in assay [1], in assay [2], in assay [3], in [4], in assay [5] and in [6] was > 100 µM (inactive) in each case. In addition, the GI50 in [7] is > 100 µM (inactive); in assay [8] it was 51.6 µM (inactive); in assay [9], > 100 µM (inactive); in [10] it was > 100 µM (inactive); in assay [11] it was > 100 µM (inactive); in assay [12], > 100 µM (inactive). Moreover, the GI50 in assay [13], in assay [14], in assay [15], in assay [16], in assay [17] and in assay [18] was > 100 µM (inactive) in each case. The GI50 in assay [19] and in assay [20] was > 100 µM (inactive) throughout.
Take `CC(C)(C)c1ccc2c(c1)OP1(Oc3cccc4cccnc34)(O2)Oc2ccc(C(C)(C)C)cc2O1`: the GI50 is 12.8 µM (inactive) in assay [1]; 4.61 µM (inactive) in assay [2]; 0.57 µM (active) in assay [3]; 0.701 µM (active) in assay [4]; 2.85 µM (inactive) in assay [5]; 8.49 µM (inactive) in assay [6]. Moreover, the GI50 in assay [7] was 3.68 µM (inactive); in assay [8], 15.7 µM (inactive); in assay [9], 3.05 µM (inactive); in [10], 22.8 µM (inactive); in assay [11], 6.73 µM (inactive); in [12] it was 3.08 µM (inactive). Further, the GI50 is 0.655 µM (active) in [13]; 5.28 µM (inactive) in assay [14]; 3.13 µM (inactive) in [15]; 9.31 µM (inactive) in assay [16]; 2.48 µM (inactive) in [17]; 3.92 µM (inactive) in assay [18]. The results for the GI50 in [19] and in [20] were 3.27 µM (inactive) and 4.9 µM (inactive), respectively.
Turning to `COC(C[C@H]1CCCC[C@]1(O)/C(=C\CO[Si](C(C)C)(C(C)C)C(C)C)Sc1ccccc1)OC`, the GI50 in [1] is 39.5 µM (inactive); in assay [2] it was 20.5 µM (inactive); in assay [3] it was 17.3 µM (inactive); in [4] it was 27 µM (inactive); in [5], 20.9 µM (inactive); in assay [6] it was 23.2 µM (inactive). The GI50 in assay [7] was 18 µM (inactive); in assay [8] it was 18.1 µM (inactive); in assay [9] it was 25.8 µM (inactive); in assay [10], 50 µM (inactive); in assay [11], 41.3 µM (inactive); in assay [12] it was 37.4 µM (inactive). In addition, the GI50 in assay [13] is > 100 µM (inactive); in assay [14], 22.5 µM (inactive); in assay [15], 22.5 µM (inactive); in assay [16], > 100 µM (inactive); in assay [17] it was 39.2 µM (inactive); in assay [18] it was 49.8 µM (inactive). Further, the values for the GI50 in assay [19] and in assay [20] were 30.3 µM (inactive) and 15.8 µM (inactive), respectively.
For the molecule `O=C(NC(Cc1ccc(I)cc1)C(=O)O)c1cccc(Br)c1` (stereo not given), the GI50 in assay [1] is > 100 µM (inactive); in assay [2] it was 44.9 µM (inactive); in assay [3], 33.7 µM (inactive); in assay [4], 69.2 µM (inactive); in assay [5], > 100 µM (inactive); in [6], > 100 µM (inactive). The GI50 in assay [7] was > 95.9 µM (inactive); in assay [8], 39.2 µM (inactive); in [9] it was > 100 µM (inactive); in assay [10], 67.3 µM (inactive); in assay [11] it was 55.1 µM (inactive); in [12], > 61.7 µM (inactive). In addition, the GI50 in [13] was 38 µM (inactive); in assay [14], 70.1 µM (inactive); in [15], > 100 µM (inactive); in assay [16], > 100 µM (inactive); in assay [17] it was > 92.9 µM (inactive); in [18], > 100 µM (inactive). Moreover, the GI50 in assay [19] was > 100 µM (inactive); in assay [20], > 61.1 µM (inactive).
For the molecule `COn1oc(=O)c2ccccc21`, the GI50 in assay [1], in assay [2], in [3], in [4], in assay [5] and in assay [6] was > 100 µM (inactive) in each case. The GI50 in assay [7], in assay [8], in assay [9], in assay [10], in assay [11] and in assay [12] was > 100 µM (inactive) throughout. Moreover, the GI50 is > 100 µM (inactive) in [13]; 91.2 µM (inactive) in [14]; > 100 µM (inactive) in assay [15]; > 100 µM (inactive) in assay [16]; > 100 µM (inactive) in assay [17]; > 100 µM (inactive) in assay [18]. Besides, the GI50 is > 100 µM (inactive) in assay [19] and 11.5 µM (inactive) in [20].
